Results published in the supplement of paper PMC13380429.

Legend:
[1] = system: A549-ACE2 infected with SARS-CoV-2; assay: morphology score (similarity to uninfected cells); higher = more like uninfected cells; details: 24 h
A549-ACE2 [2] = assay: drug-induced phospholipidosis relative to tamoxifen; higher = more phospholipidosis
Vero E6 [3] = assay: relative viability EC50 (midpoint between 100% and the lowest measured viability); higher = less toxic; details: 72 h
HepG2 [4] = assay: as above; details: 72 h
Caco-2 [5] = assay: as above; details: 72 h
[6] = system: A549-ACE2 infected with SARS-CoV-2; assay: cell count relative to DMSO; higher = less toxic; details: 24 h
[7] = system: A549-ACE2 infected with SARS-CoV-2; assay: SARS-CoV-2 infection rate relative to DMSO; higher = more infection; details: 24 h
Vero E6 [8] = assay: drug sensitivity score (DSS) for viability; higher = more toxic; extreme values may be limits of the assay; details: 72 h
U2OS [9] = assay: as above; details: 72 h
HepG2 [10] = assay: as above; details: 72 h
Calu-3 [11] = assay: as above; details: 72 h
Caco-2 [12] = assay: as above; details: 72 h
A549-ACE2 [13] = assay: phospholipidosis EC50; higher = less potent phospholipidosis inducer; details: 24 h
Vero E6 [14] = assay: cell viability relative to DMSO; higher = less toxic; details: 72 h
U2OS [15] = assay: as above; details: 72 h
HepG2 [16] = assay: as above; details: 72 h
Calu-3 [17] = assay: as above; details: 72 h
Caco-2 [18] = assay: as above; details: 72 h
U2OS [19] = assay: relative viability EC50 (midpoint between 100% and the lowest measured viability); higher = less toxic; details: 72 h
Calu-3 [20] = assay: as above; details: 72 h

NC(=O)N1CCC(CC(=O)N2CCC([C@H]3c4ncc(Br)cc4CCc4cc(Cl)cc(Br)c43)CC2)CC1 [lonafarnib]
Details | SARS-CoV-2 infection rate, [7] [%] | cell count, [6] [%] | cell viability, Caco-2 [18] [%] | cell viability, Calu-3 [17] [%] | cell viability, HepG2 [16] [%] | cell viability, U2OS [15] [%] | cell viability, Vero E6 [14] [%] | morphology score, [1]
1 nM | – | – | 91.3 | 80.5 | 102 | 97.5 | 103 | –
10 nM | – | – | 106 | 91.2 | 98.7 | 100 | 94.1 | –
100 nM | – | – | 94.6 | 91.3 | 96.2 | 95 | 94.8 | –
0.3 µM | 97 | 98 | – | – | – | – | – | 0.19
1000 nM | – | – | 79.7 | 72.6 | 89.5 | 92 | 93.3 | –
3 µM | 85 | 102 | – | – | – | – | – | 0.41
10 µM | 71 | 94 | – | – | – | – | – | 0.69
10000 nM | – | – | 47.7 | 68.5 | 49.8 | 67.2 | 88.3 | –
30 µM | 11 | 74 | – | – | – | – | – | 0.56

drug-induced phospholipidosis [%], A549-ACE2 [2]
Details | 0.3 µM | 0.833333 µM | 3.33333 µM | 6.66667 µM | 10 µM | 30 µM
24 h | 11.7 | 7.58 | 19.6 | 27.3 | 40.9 | 50.3
48 h | 16.3 | 10.1 | 20.5 | 30.3 | 36.1 | –
72 h | 15.9 | 12.2 | 29.3 | 42.5 | 51.2 | –

Details | drug sensitivity score | phospholipidosis EC50 [µM] | relative viability EC50 [µM]
A549-ACE2 [13] | – | 7.17 | –
Caco-2 [5] | – | – | 1.29
Caco-2 [12] | 5 | – | –
Calu-3 [11] | 6.3 | – | –
HepG2 [4] | – | – | 1.7
HepG2 [10] | 4.4 | – | –
U2OS [9] | 2.6 | – | –
Vero E6 [3] | – | – | > 10
Vero E6 [8] | 0 | – | –

Nc1ccn([C@H]2C[C@H](O)[C@@H](CO)O2)c(=O)n1 [torcitabine]
Details | drug sensitivity score | relative viability EC50 [µM]
Caco-2 [5] | – | > 10
Caco-2 [12] | 0.3 | –
Calu-3 [11] | 0 | –
Calu-3 [20] | – | > 10
HepG2 [4] | – | > 10
HepG2 [10] | 0 | –
U2OS [9] | 0 | –
U2OS [19] | – | > 10
Vero E6 [3] | – | > 10
Vero E6 [8] | 0 | –

cell viability [%]
Details | Caco-2 [18] | Calu-3 [17] | HepG2 [16] | U2OS [15] | Vero E6 [14]
1 nM | 105 | 100 | 105 | 102 | 104
10 nM | 95 | 94.6 | 94.3 | 106 | 95.7
100 nM | 101 | 91.9 | 94.6 | 99.1 | 90.2
1000 nM | 97.1 | 99.9 | 104 | 104 | 95.2
10000 nM | 86.5 | 85.6 | 98.8 | 95.5 | 101

CCCCNc1c(C(=O)OCC)c(C)nc2c1cnn2CC [tracazolate]
Details | drug sensitivity score | relative viability EC50 [µM]
Caco-2 [5] | – | > 10
Caco-2 [12] | 0 | –
Calu-3 [11] | 0.1 | –
Calu-3 [20] | – | > 10
HepG2 [4] | – | > 10
HepG2 [10] | 0 | –
U2OS [9] | 0 | –
U2OS [19] | – | > 10
Vero E6 [3] | – | > 10
Vero E6 [8] | 0 | –

cell viability [%]
Details | Caco-2 [18] | Calu-3 [17] | HepG2 [16] | U2OS [15] | Vero E6 [14]
1 nM | 93.3 | 101 | 97.6 | 101 | 93
10 nM | 96.1 | 85.1 | 104 | 93.2 | 97.7
100 nM | 97.2 | 98.6 | 92.5 | 102 | 96.9
1000 nM | 92.7 | 102 | 106 | 97.7 | 96.7
10000 nM | 101 | 86.4 | 99.3 | 93.6 | 96.5

O=C(Nc1ccc(Br)cc1)c1cc(Br)cc(Br)c1O [tribomsalan]
Details | drug sensitivity score | relative viability EC50 [µM]
Caco-2 [5] | – | > 10
Caco-2 [12] | 0.6 | –
Calu-3 [11] | 0 | –
Calu-3 [20] | – | > 10
HepG2 [4] | – | > 10
HepG2 [10] | 0.4 | –
U2OS [9] | 0 | –
U2OS [19] | – | > 10
Vero E6 [3] | – | > 10
Vero E6 [8] | 0 | –

cell viability [%]
Details | Caco-2 [18] | Calu-3 [17] | HepG2 [16] | U2OS [15] | Vero E6 [14]
1 nM | 90.7 | 94.4 | 102 | 96.6 | 93.5
10 nM | 90.3 | 92.2 | 104 | 98 | 100
100 nM | 94.7 | 93.2 | 94.5 | 96 | 91.1
1000 nM | 105 | 102 | 99.7 | 102 | 93.7
10000 nM | 76.3 | 91.2 | 82.7 | 96.4 | 98.6

O=c1c2ccccc2oc2ccccc12 [xanthone]
Details | drug sensitivity score | relative viability EC50 [µM]
Caco-2 [5] | – | > 10
Caco-2 [12] | 0 | –
Calu-3 [11] | 0 | –
Calu-3 [20] | – | > 10
HepG2 [4] | – | > 10
HepG2 [10] | 0 | –
U2OS [9] | 0 | –
U2OS [19] | – | > 10
Vero E6 [3] | – | > 10
Vero E6 [8] | 0 | –

cell viability [%]
Details | Caco-2 [18] | Calu-3 [17] | HepG2 [16] | U2OS [15] | Vero E6 [14]
1 nM | 102 | 95.3 | 108 | 101 | 104
10 nM | 98.6 | 96.5 | 93.8 | 94.9 | 100
100 nM | 101 | 103 | 93.5 | 99 | 101
1000 nM | 95.1 | 104 | 110 | 97.9 | 99.1
10000 nM | 106 | 104 | 93.6 | 100 | 95.9

C=CCCCCCCCCC(=O)[O][Zn][O]C(=O)CCCCCCCCC=C [zinc-undecylenate]
Details | drug sensitivity score | relative viability EC50 [µM]
Caco-2 [5] | – | > 10
Caco-2 [12] | 0.3 | –
Calu-3 [11] | 0 | –
Calu-3 [20] | – | > 10
HepG2 [4] | – | > 10
HepG2 [10] | 0 | –
U2OS [9] | 0 | –
U2OS [19] | – | > 10
Vero E6 [3] | – | > 10
Vero E6 [8] | 0 | –

cell viability [%]
Details | Caco-2 [18] | Calu-3 [17] | HepG2 [16] | U2OS [15] | Vero E6 [14]
1 nM | 94.4 | 95.7 | 102 | 97.7 | 105
10 nM | 96.3 | 100 | 98.8 | 98.8 | 95.9
100 nM | 98.2 | 101 | 99.3 | 98.4 | 94.8
1000 nM | 96.6 | 95.6 | 100 | 95.1 | 98.5
10000 nM | 86.9 | 116 | 92 | 99.1 | 93.9
